The source made the active and inactive calls. No cut-off for these calls is given here.
Tests used:
[1] = molecular target: T1, Farnesyl pyrophosphate synthase (Homo sapiens) (UniProt P14324); assay: Inhibition of human recombinant FPPS using GPP/[3H]IPP as substrate at 100 nM incubated for 10 mins prior to substrate addition measured after 8 mins by scintillation counting analysis
T1 sequence (whole entry): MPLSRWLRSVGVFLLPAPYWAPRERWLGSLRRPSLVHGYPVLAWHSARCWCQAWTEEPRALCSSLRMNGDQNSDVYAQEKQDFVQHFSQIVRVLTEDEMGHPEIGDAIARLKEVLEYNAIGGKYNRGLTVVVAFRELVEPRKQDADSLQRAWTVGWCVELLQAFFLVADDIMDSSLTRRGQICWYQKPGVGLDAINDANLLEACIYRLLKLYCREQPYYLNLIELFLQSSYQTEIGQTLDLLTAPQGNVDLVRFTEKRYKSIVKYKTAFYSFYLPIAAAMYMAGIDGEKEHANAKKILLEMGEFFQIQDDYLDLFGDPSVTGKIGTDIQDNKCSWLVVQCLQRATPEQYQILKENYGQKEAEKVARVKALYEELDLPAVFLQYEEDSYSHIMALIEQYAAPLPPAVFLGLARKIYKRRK

[2] = molecular target: T2, Farnesyl pyrophosphate synthase (Homo sapiens, UniProt P14324); assay: Inhibition of human recombinant FPPS using GPP/[3H]IPP as substrate incubated for 10 mins prior to substrate addition measured after 8 mins by scintillation counting analysis
T2 sequence (P14324 whole entry): T1 sequence (whole entry)

[3] = molecular target: T2, Farnesyl pyrophosphate synthase; assay: Inhibition of human recombinant FPPS using GPP/[3H]IPP as substrate incubated for 10 mins prior to substrate addition by scintillation counting analysis
Hydroxyapatite = assay: Binding affinity to bone mineral hydroxyapatite at 50 uM after 5 mins by NMR-spectroscopic analysis

Structure (SMILES) | inhibition [1] [%] | Activity (Hydroxyapatite) | also measured
O=P(O)(O)C(Nc1ncnc2sc(-c3cccc4[nH]ncc34)cc12)P(=O)(O)O | < 20 |  | 
O=P(O)(O)C(Nc1ncnc2sc(-c3cccc(C(F)(F)F)c3)cc12)P(=O)(O)O | 30 |  | 
CC(C)Oc1ccc(-c2cc3c(NC(P(=O)(O)O)P(=O)(O)O)ncnc3s2)cc1 |  |  | IC50 [2]: 200 nM
COc1ccc(-c2cc3c(NC(P(=O)(O)O)P(=O)(O)O)ncnc3s2)cc1 |  |  | IC50 [3]: 440 nM
O=P(O)(O)C(Nc1ncnc2sc(-c3ccc(OC4CC4)cc3)cc12)P(=O)(O)O |  | Active | 
O=P(O)(O)C(O)(Cc1cccnc1)P(=O)(O)O |  | Active | 
Cc1noc(C)c1-c1cc2c(NC(P(=O)(O)O)P(=O)(O)O)ncnc2s1 | < 20 |  | 
O=P(O)(O)C(Nc1ncnc2sc(-c3ccc(C4CC4)cc3)cc12)P(=O)(O)O |  | Active | IC50 [2]: 39 nM; IC50 [3]: 115 nM
O=P(O)(O)C(Nc1ncnc2sc(-c3ccc4[nH]ncc4c3)cc12)P(=O)(O)O | < 20 |  | 
O=P(O)(O)C(Nc1ncnc2sc(-c3ccc(C(F)(F)F)cc3)cc12)P(=O)(O)O | 73 | Active | 
O=P(O)(O)C(Nc1ncnc2sc(-c3ccc(C4CC4(F)F)cc3)cc12)P(=O)(O)O (centres undefined) |  |  | IC50 [3]: 140 nM
